# Results published in US5574023A, “Intramolecularly crosslinked (1→3)-β-D-glucans” (Seikagaku Kogyo Kabushiki Kaisha (Seikagaku Corporation), priority 1991, dated 1996).
# Key:
# [1] = Single helix conformation content by high-resolution 13C-NMR of hydrated solid sample; assay type: physicochemical; conditions: for Single helix conformation % retention after one month: aqueous solution or suspension stored aseptically at 4° C. for 1 month, versus initial value; for Single helix conformation content in hydrated solid sample: immediately after synthesis, 13C-NMR
# Protocol: Each sample was deprived of water by lyophilization and then maintained in saturated water vapor, and the hydrated solid sample obtained was subjected to high-resolution ^13 C-NMR spectrometry. The single helix conformation content in the (1→3)-β-D-glucan in the sample was calculated by comparing the chemical shift peak heights for each carbon atom with the peak heights of the chemical shifts shown in Table 1 for other higher-order structure carbon atoms.
# The single helix conformation contents thus obtained from the chemical shifts of C-2, C-3 and C-5 and the respective peak heights are shown in Table 2.
# Furthermore, aqueous solutions or suspensions were stored in aseptic condition at 4° C. for 1 month and then tested for single helix conformation content in the same manner. The data obtained were compared with the initial values and the rates of retention of the respective single helix conformations contained were calculated. The uncrosslinked, single helix conformation schizophyllan, when subjected to solid-phase ^13 C-NMR spectrometry immediately after formation of said conformation, gave a single helix conformation content of 60% but, after one-month storage, the content of said structure was only 6% (10% retention). This is due to advanced transformation from the single helix conformation to other higher-order structures.
# [2] = tested on: Horseshoe crab lysate factor G; assay: Factor G activating ability (pNA release from Boc-Leu-Gly-Arg-pNA); assay type: biochemical; conditions: for % Retention of factor G activating ability after one month: aqueous solution or suspension stored one month at 4° C., versus initial value
# Protocol: For each sample to be tested, a reaction mixture (200 μl) containing the sample, water and the ingredients mentioned below was prepared. […]
# This reaction mixture was incubated at 37° C. for 30 minutes and, then, p-nitroaniline (pNA) liberated was quantitated. Thus, to the sample after incubation were added 0.5 ml each of 0.04% sodium nitrite (solution in 0.48M hydrochloric acid), 0.3% ammonium sulfamate and 0.07% N-1-naphthylethylenediamine dihydrichloride in that order for causing a change in color tone due to diazo coupling, and the absorbance at 545 nm (A545) was determined.
# This measurement was performed for an aqueous solution or suspension of each substance immediately after synthesis thereof. The same measurement was also performed after one month storage of the sample at 4° C., the minimum concentration (C, g/ml) at which the absorbance at 545 nm amounted to 0.1 was determined, and the factor G activating ability was expressed in terms of -log C (g/ml) value. By comparing this value with the initial value, the rate of retention of factor G activating ability was calculated.
# Sarcoma 180 cells = assay: Tumor inhibition rate, Sarcoma 180 transplanted subcutaneously in mice; assay type: in vivo, CLJ-ICR female mice; conditions: intraperitoneal, 10 times (days 1-5 and 7-11), tumor weight on day 13 versus untreated control; for % Tumor inhibition, after one month: sample administered after one month storage at 4° C.; for % Tumor inhibition, initial: sample administered immediately after preparation
# Protocol: Sarcoma 180 cells (5×10^6 cells) were transplanted subcutaneously into the groin of each of 6-week-old CLJ-ICR female mice weighing about 25 g. The intramolecularly crosslinked, single helix conformation (1→3)-β-D-glucans of the invention as obtained in Examples 1-10 and the uncrosslinked, single helix conformation schizophyllan of Comparative Example were respectively administered to the mice at 24 hours after transplantation (day 1) and thereafter once daily on days 1-5 and 7-11 (10 times in total). Thus, each sample was comminuted in a mortar, suspended or dissolved in physiological saline for injection, sterilized in an autoclave at 121° C. for 20 minutes, and then intraperitoneally administered. In a control group, no glucan was given to mice.
# On day 13, tumor nodules were excised and weighed, and their weights were compared with the tumor weight in the untreated control group for calculating tumor inhibition rates.
# In the above test, sample solutions or suspensions were administered immediately after preparation on one hand and, on the other, the solutions or suspensions were administered after one month storage at 4° C.
Single helix conformation % retention after one month [1] [%],Single helix conformation content in hydrated solid sample [1] [%],Substance,% Retention of factor G activating ability after one month [2] [%],"% Tumor inhibition, after one month (Sarcoma 180 cells) [%]","% Tumor inhibition, initial (Sarcoma 180 cells) [%]","Initial factor G activating ability, -log C (minimum concentration at which A545 amounted to 0.1) ([2]; immediately after synthesis, 37° C., 30 minutes)"
80,70,"2,3,4-Trihydroxyadipodialdehyde-crosslinked hydrazinocurdlan [Example 3]",20,92.1,100,
90,70,"2,3,4-Trihydroxyadipodihydrazide-crosslinked aldehyde schizophyllan [Example 6]",30,96.1,100,
100,75,Dodecamethylenediamine-crosslinked aldehyde schizophyllan [Example 4],100,98.4,100,
53,23,Glutardialdehyde-crosslinked hydrazino yeast glucan [Example 9],20,73.0,90.0,
60,70,Glutardialdehyde-crosslinked hydrazinocurdlan (no receptor added) [Example 1],10,70.0,98.0,11 -log C (g/ml)
70,65,Glutardialdehyde-crosslinked hydrazinocurdlan [Example 2],20,91.1,98.2,
52,35,Glutardialdehyde-crosslinked hydrazinolentinan [Example 10],20,80.0,96.0,
80,70,Glutardialdehyde-crosslinked hydrazinoschizophyllan [Example 7],25,95.0,100,
70,60,Hexamethylenedihydrazine-crosslinked carboxymethylated curdlan [Example 8],10,75.3,98.2,
60,55,Pimelic acid-crosslinked hydrazinoschizophyllan [Example 5],10,65.6,95.3,
